Reference: patent US20080119462A1, “METHOD FOR TREATING VASCULAR HYPERPERMEABLE DISEASE” (Sucampo AG, priority 2003, published 2008)

Legend:
retinal VEGF = experiment: Retinal VEGF level in STZ diabetic rats (Murine VEGF ELISA kit); assay type: in vivo, rat; details: 0.1 mg/kg, sc, u.i.d.
Method: STZ diabetic rats were prepared in the same manner as in Example 2. Compound A (0.1 mg/kg, sc, u.i.d.) was administered from 3 days to 8 weeks after the STZ administration. To the normal group and STZ control group, a vehicle was treated. At 8 weeks from the STZ administration, the retina was removed from the animals and the retinal VEGF level was determined using a Murine VEGF ELISA kit.

diabetic rats = experiment: Ocular permeability in STZ diabetic rats (leakage of fluorescein into the vitreous); assay type: in vivo, rat; details: 10 mg/kg, s.c. u.i.d., daily from 2 weeks after STZ for 2 weeks, mean ± S.E.M., 10 rats
Method: Diabetes in rats was induced with an intraperitoneal (i.p.) injection of 65 mg/ml/kg of streptozotocin (STZ) in 2 mmol/l citrate buffer (pH 4.5) after a 20-h fast. At the same time control rats were injected with an equal volume of 2 mmol/l citrate buffer. Plasma glucose level was checked by a calorimetric method. At day 3 of STZ treatment, the rats were diagnosed with diabetes showing a plasma glucose level of 350 mg/dl.
The treatment of Compound A was given daily from 2 weeks after STZ treatment for 2 weeks. At 24 hrs after final treatment of Compound A, the vascular permeability in oculus was investigated based on the leakage of dye into the vitreous 30 min after intravenous injection of fluorescein solution (40 mg/ml/kg). Permeability was expressed as vitreous/plasma ratio of fluorescein concentration measured by a fluorophotometer. At the same time, the plasma SSAO activity was checked by the radiochemical-enzyme assay using ^14C-benzylamine (2×10^−5 mol/l final concentration) as substrate.
In the same manner as in Example 2, the effect of various VAP-1 inhibitors on ocular permeability was determined in diabetic rats.

CC(=O)Nc1nc(CCc2ccc(NC(=N)N)cc2)cs1 [Compound A, N-{4-[2-(4-{[amino(imino)methyl]amino}phenyl)ethyl]-1,3-thiazol-2-yl}acetamide]
Effect on the increased retinal VEGF level in STZ diabetic rats (in words) (retinal VEGF; 3 days to 8 weeks after STZ): completely inhibited | Retinal VEGF level (retinal VEGF; STZ diabetic rats, from 3 days to 8 weeks after STZ, mean ± S.E.M., 10 rats): 28.3 ± 2.72 pg/mg protein | Vitreous/Plasma Ratio of Fluorescein Concentration (diabetic rats): 5.39 ± 0.73 ×10^−3
